In patent US20240109917A1 (ACTELION PHARMACEUTICALS LTD, priority 2020, published 2024):
Like-named read-outs stand apart in the source and are kept apart here.

Legend:
[1] = biological target: His6-TEV-PDGFRβ (557-1016) (Homo sapiens (Human), UniProt P09619); test: PDGFRβ HTRF Assay; type: biochemical; settings: read-out: PDGFR HTRF IC50
Summary of the method: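 Human PDGFRβ (557-1016) pre-incubated with compound for 30 min at RT in pH 7.5 HEPES/MgCl2/EGTA/Brij-35/DTT buffer. Reaction started with ATP and TK-biotin peptide, run 3 h at RT, then quenched with EDTA-containing Eu-cryptate antibody/streptavidin-XL665. HTRF 665/620 nm ratio read after 60 min; percent inhibition relative to DMSO and 10 μM imatinib controls.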

PDGFRβ = PDGFRβ (Rattus norvegicus (Rat), UniProt Q05030); test: PDGFRβ Cellular Assay (PDGFRb P-Y751 HTRF in A10 cells stimulated with PDGF-BB); type: cell-based
Chain of PDGFRβ (Q05030 32-1097): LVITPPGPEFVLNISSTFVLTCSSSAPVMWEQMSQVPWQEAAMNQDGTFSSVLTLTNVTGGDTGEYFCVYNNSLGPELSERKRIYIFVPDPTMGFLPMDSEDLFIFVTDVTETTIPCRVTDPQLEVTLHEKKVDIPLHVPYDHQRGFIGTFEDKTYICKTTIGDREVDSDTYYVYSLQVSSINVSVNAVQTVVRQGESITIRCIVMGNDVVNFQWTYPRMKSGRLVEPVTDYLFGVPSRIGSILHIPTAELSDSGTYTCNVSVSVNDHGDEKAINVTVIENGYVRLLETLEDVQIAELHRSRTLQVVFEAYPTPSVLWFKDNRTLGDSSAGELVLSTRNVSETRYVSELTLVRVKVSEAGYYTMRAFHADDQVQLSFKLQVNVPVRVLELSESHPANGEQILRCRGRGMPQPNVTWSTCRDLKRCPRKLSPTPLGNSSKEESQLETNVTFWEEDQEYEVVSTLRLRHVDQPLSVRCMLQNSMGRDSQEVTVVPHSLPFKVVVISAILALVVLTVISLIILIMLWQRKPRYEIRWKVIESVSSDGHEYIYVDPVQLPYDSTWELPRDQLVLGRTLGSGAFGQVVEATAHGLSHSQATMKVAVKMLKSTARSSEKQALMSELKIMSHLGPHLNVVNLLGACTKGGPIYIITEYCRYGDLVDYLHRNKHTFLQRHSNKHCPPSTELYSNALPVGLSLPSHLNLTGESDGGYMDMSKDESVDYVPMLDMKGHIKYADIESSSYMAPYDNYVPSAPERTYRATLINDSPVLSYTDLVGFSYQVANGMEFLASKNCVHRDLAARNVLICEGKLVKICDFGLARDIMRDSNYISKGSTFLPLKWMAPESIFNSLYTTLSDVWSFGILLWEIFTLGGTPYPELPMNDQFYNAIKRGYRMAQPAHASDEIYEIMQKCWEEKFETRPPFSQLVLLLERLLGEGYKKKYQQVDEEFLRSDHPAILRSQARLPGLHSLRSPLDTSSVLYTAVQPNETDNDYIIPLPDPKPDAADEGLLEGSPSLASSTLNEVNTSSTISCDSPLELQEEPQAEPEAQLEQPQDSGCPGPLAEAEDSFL
Summary of the method: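 Rat A10 cells, plated overnight, were treated with compound for 3 hours, then stimulated with PDGF-BB (working stock 100 ng/mL in 10% FBS medium). After lysis, PDGFRβ P-Y751 was detected by HTRF.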

Chain of His6-TEV-PDGFRβ (557-1016) (P09619 557-1016): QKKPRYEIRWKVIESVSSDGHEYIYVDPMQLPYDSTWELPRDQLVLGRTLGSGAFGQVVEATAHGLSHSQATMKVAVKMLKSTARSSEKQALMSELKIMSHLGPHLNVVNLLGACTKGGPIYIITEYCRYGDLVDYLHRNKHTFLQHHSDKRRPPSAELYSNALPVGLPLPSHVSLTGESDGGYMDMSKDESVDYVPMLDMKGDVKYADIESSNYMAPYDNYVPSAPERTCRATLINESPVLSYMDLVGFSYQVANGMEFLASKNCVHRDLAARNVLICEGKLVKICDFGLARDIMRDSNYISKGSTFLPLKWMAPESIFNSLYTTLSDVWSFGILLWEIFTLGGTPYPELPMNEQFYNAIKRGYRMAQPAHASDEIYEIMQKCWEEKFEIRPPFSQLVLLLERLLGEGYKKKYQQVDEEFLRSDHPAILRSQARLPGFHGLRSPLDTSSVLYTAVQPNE

SMILES | IC50 [1] | IC50 (PDGFRβ; read-out: PDGFR Cellular IC50) | IC50 (PDGFRβ; PDGFR Cellular IC50)
Cc1ncc(NC(=O)CC23CCCN2CCC3)cc1NC(=O)c1cnn2cc(-c3cnn(C)c3)sc12 [Example 302, 2-(1-methyl-1H-pyrazol-4-yl)-N-(2-methyl-5-(2-(tetrahydro-1H-pyrrolizin-7a(5H)-yl)acetamido)pyridin-3-yl)pyrazolo[5,1-b]thiazole-7-carboxamide] | 1.2 nM | 7 nM | 
COc1ncccc1-c1cn2ncc(C(=O)Nc3cc(NC(=O)CN4CCC5(CCOC5)C4)cnc3C)c2s1 (stereo not shown) [Example 320, N-(5-(2-(2-oxa-7-azaspiro[4.4]nonan-7-yl)acetamido)-2-methylpyridin-3-yl)-2-(2-methoxypyridin-3-yl)pyrazolo[5,1-b]thiazole-7-carboxamide] | 0.2 nM | 1.6 nM | 
Cc1ncc(NC(=O)CC(C)N2CCCCC2)cc1NC(=O)c1cnn2cc(-c3cnn(C)c3)sc12 (stereo not shown) [Example 307, 2-(1-methyl-1H-pyrazol-4-yl)-N-(2-methyl-5-(3-(piperidin-1-yl)butanamido)pyridin-3-yl)pyrazolo[5,1-b]thiazole-7-carboxamide] | 9.7 nM | 73.2 nM | 
COc1ncccc1-c1cn2ncc(C(=O)Nc3cc(NC(=O)CN4CCO[C@H](C)C4)cnc3C)c2s1 [Example 318, (R)-2-(2-methoxypyridin-3-yl)-N-(2-methyl-5-(2-(2-methylmorpholino)acetamido)pyridin-3-yl)pyrazolo[5,1-b]thiazole-7-carboxamide] | 0.3 nM |  | 3.8 nM
Cc1ncc(NC(=O)CN2CC(C)(C)C2)cc1NC(=O)c1cnn2cc(-c3cn[nH]c3)sc12 [Example 271, N-(5-(2-(3,3-dimethylazetidin-1-yl)acetamido)-2-methylpyridin-3-yl)-2-(1H-pyrazol-4-yl)pyrazolo[5,1-b]thiazole-7-carboxamide] | 0.2 nM | 10.3 nM | 
Cc1ncc(NC(=O)CN2CC(C)(C)C2)cc1NC(=O)c1cnn2cc(-c3cnn(C(F)(F)F)c3)sc12 [Example 269, N-(5-(2-(3,3-dimethylazetidin-1-yl)acetamido)-2-methylpyridin-3-yl)-2-(1-(trifluoromethyl)-1H-pyrazol-4-yl)pyrazolo[5,1-b]thiazole-7-carboxamide] | 1.8 nM | 17.5 nM | 
Cc1ncc(NC(=O)CN2CC(C)(C)C2)cc1NC(=O)c1cnn2cc(-c3cnn(CC4CC4)c3)sc12 [Example 270, 2-(1-(cyclopropylmethyl)-1H-pyrazol-4-yl)-N-(5-(2-(3,3-dimethylazetidin-1-yl)acetamido)-2-methylpyridin-3-yl)pyrazolo[5,1-b]thiazole-7-carboxamide] | 0.4 nM | 4.8 nM | 
Cc1ncc(NC(=O)CN2CC(C)(C)C2)cc1NC(=O)c1cnn2cc(-c3ccc(C4(O)COC4)cc3)sc12 [Example 272, N-(5-(2-(3,3-dimethylazetidin-1-yl)acetamido)-2-methylpyridin-3-yl)-2-(4-(3-hydroxyoxetan-3-yl)phenyl)pyrazolo[5,1-b]thiazole-7-carboxamide] | 0.2 nM | 5.6 nM | 
CC(=O)Nc1cc(-c2cn3ncc(C(=O)Nc4cc(NC(=O)CN5CC(C)(C)C5)cnc4C)c3s2)ccn1 [Example 273, 2-(2-acetamidopyridin-4-yl)-N-(5-(2-(3,3-dimethylazetidin-1-yl)acetamido)-2-methylpyridin-3-yl)pyrazolo[5,1-b]thiazole-7-carboxamide] | 0.2 nM | 13.7 nM | 
Cc1ncc(NC(=O)CN2CC(C)(C)C2)cc1NC(=O)c1cnn2cc(-c3ccnc(N4CCOCC4)c3)sc12 [Example 284, N-(5-(2-(3,3-dimethylazetidin-1-yl)acetamido)-2-methylpyridin-3-yl)-2-(2-morpholinopyridin-4-yl)pyrazolo[5,1-b]thiazole-7-carboxamide] | 0.2 nM | 2.8 nM | 
Cc1ncc(NC(=O)CN2CCC3(CCOC3)C2)cc1NC(=O)c1cnn2cc(-c3cnn(C)c3)sc12 (stereo not shown) [Example 19, N-(5-(2-(2-oxa-7-azaspiro[4.4]nonan-7-yl)acetamido)-2-methylpyridin-3-yl)-2-(1-methyl-1H-pyrazol-4-yl)pyrazolo[5,1-b]thiazole-7-carboxamide] | 0.7 nM | 12.9 nM | 
